Several values for one entry are separate records, joined by “and”; a condition that tells them apart may be missing. Equal values may be shown once.
Assays:
[1] = xn = mol fraction of the nth substance listed; conditions: 298.15 K, 101 kPa, Liquid, MP522 conductivity instrument
[2] = Liquid, MP522 conductivity instrument

CCCCC[n+]1ccccc1.O=S(=O)([N-]S(=O)(=O)C(F)(F)F)C(F)(F)F [1-pentylpyridinium bis(trifluoromethylsulfonyl)amide] + CO
[1]
Conditions	electrical conductivity [S/m]
x1 = 0.00257	0.323
x1 = 0.00682	0.658
x1 = 0.012	0.966
x1 = 0.0185	1.26
x1 = 0.0256	1.5
x1 = 0.0325	1.67
x1 = 0.0398	1.82
x1 = 0.0546	1.97
x1 = 0.0734	2.1
x1 = 0.0854	2.11
x1 = 0.1093	2.05
x1 = 0.1709	1.82
x1 = 0.2113	1.61
x1 = 0.3105	1.22
x1 = 0.3653	1.03
x1 = 0.4197	0.886
x1 = 0.4604	0.788
x1 = 0.5266	0.652
x1 = 0.5689	0.585
x1 = 0.6107	0.522
x1 = 0.6447	0.479
x1 = 0.7183	0.401
x1 = 0.7639	0.361
x1 = 0.8278	0.313
x1 = 0.8938	0.27
x1 = 0.9397	0.246
x1 = 1	0.216

CC[n+]1ccccc1.O=S(=O)([N-]S(=O)(=O)C(F)(F)F)C(F)(F)F [1-ethylpyridinium bis[(trifluoromethyl)sulfonyl]imide] + CCO
[1]
Conditions	electrical conductivity [S/m]
x1 = 0.0428	0.803
x1 = 0.0551	0.956
x1 = 0.0755	1.16
x1 = 0.0881	1.26
x1 = 0.1135	1.43
x1 = 0.1366	1.54
x1 = 0.1789	1.67
x1 = 0.2096	1.71
x1 = 0.234	1.73
x1 = 0.2537	1.73
x1 = 0.2781	1.72
x1 = 0.3029	1.7
x1 = 0.3612	1.64
x1 = 0.4404	1.51
x1 = 0.4844	1.44
x1 = 0.5537	1.31
x1 = 0.5948	1.24
x1 = 0.6418	1.16
x1 = 0.7011	1.05
x1 = 0.76	0.954
x1 = 0.8228	0.858
x1 = 0.8845	0.769
x1 = 1	0.629

CC[n+]1ccccc1.O=S(=O)([N-]S(=O)(=O)C(F)(F)F)C(F)(F)F [1-ethylpyridinium bis[(trifluoromethyl)sulfonyl]imide] + CO
[1]
Conditions	electrical conductivity [S/m]
x1 = 0.0169	1.42
x1 = 0.0206	1.61
x1 = 0.03	2
x1 = 0.0416	2.42
x1 = 0.0535	2.7
x1 = 0.068	2.93
x1 = 0.089	3.11
x1 = 0.1049	3.17
x1 = 0.1209	3.19
x1 = 0.1541	3.14
x1 = 0.2007	2.95
x1 = 0.2781	2.55
x1 = 0.3667	2.12
x1 = 0.4224	1.9
x1 = 0.5562	1.44
x1 = 0.6863	1.12
x1 = 0.8307	0.863
x1 = 1	0.63

CCCCCC[n+]1ccccc1.O=S(=O)([N-]S(=O)(=O)C(F)(F)F)C(F)(F)F [1-hexylpyridinium bis(trifluromethylsulfonyl)imide]
[2], 101 kPa
Conditions	electrical conductivity
283.15 K	0.0737 S/m
293.15 K	0.128 S/m and 0.129 S/m
298.15 K	0.163 S/m
303.15 K	0.205 S/m
313.15 K	0.306 S/m

CC[n+]1ccc(C)cc1.O=S(=O)([N-]S(=O)(=O)C(F)(F)F)C(F)(F)F + CO
[1]
Conditions	electrical conductivity [S/m]
x1 = 0.00925	0.925
x1 = 0.0105	1.01
x1 = 0.0144	1.27
x1 = 0.0176	1.45
x1 = 0.0227	1.72
x1 = 0.0313	2.1
x1 = 0.0393	2.36
x1 = 0.0492	2.62
x1 = 0.0575	2.79
x1 = 0.0666	2.94
x1 = 0.0757	3.05
x1 = 0.0856	3.14
x1 = 0.0993	3.22
x1 = 0.1435	3.26
x1 = 0.1601	3.23
x1 = 0.1736	3.2
x1 = 0.1902	3.14
x1 = 0.2037	3.09
x1 = 0.2297	2.97
x1 = 0.2575	2.84
x1 = 0.284	2.72
x1 = 0.3231	2.53
x1 = 0.3561	2.39
x1 = 0.3932	2.23
x1 = 0.4574	2
x1 = 0.5075	1.81
x1 = 0.5713	1.61
x1 = 0.6042	1.52
x1 = 0.6803	1.33
x1 = 0.7416	1.2
x1 = 0.8215	1.04
x1 = 0.8959	0.912
x1 = 0.918	0.883
x1 = 1	0.771

CCCC[n+]1ccccc1.O=S(=O)([N-]S(=O)(=O)C(F)(F)F)C(F)(F)F [1-butylpyridinium bis[(trifluoromethyl)sulfonyl]imide] + CO
[1]
Conditions	electrical conductivity [S/m]
x1 = 0.00227	0.302
x1 = 0.00676	0.679
x1 = 0.0112	0.961
x1 = 0.0179	1.29
x1 = 0.023	1.5
x1 = 0.0297	1.71
x1 = 0.0427	1.99
x1 = 0.0507	2.12
x1 = 0.0696	2.28
x1 = 0.092	2.35
x1 = 0.1676	2.15
x1 = 0.2137	1.96
x1 = 0.2653	1.72
x1 = 0.2984	1.58
x1 = 0.3655	1.33
x1 = 0.4009	1.22
x1 = 0.4397	1.11
x1 = 0.5194	0.91
x1 = 0.561	0.825
x1 = 0.6014	0.749
x1 = 0.6433	0.681
x1 = 0.7132	0.581
x1 = 0.7592	0.523
x1 = 0.8182	0.456
x1 = 0.8544	0.421
x1 = 0.8988	0.381
x1 = 0.9425	0.346
x1 = 1	0.308

CCCC[n+]1ccc(C)cc1.O=S(=O)([N-]S(=O)(=O)C(F)(F)F)C(F)(F)F + CO
[1]
Conditions	electrical conductivity [S/m]
x1 = 0.00761	0.7
x1 = 0.00979	0.836
x1 = 0.0118	0.951
x1 = 0.0142	1.07
x1 = 0.0176	1.24
x1 = 0.021	1.38
x1 = 0.0297	1.69
x1 = 0.0366	1.86
x1 = 0.0544	2.15
x1 = 0.0653	2.25
x1 = 0.0711	2.28
x1 = 0.0773	2.32
x1 = 0.1083	2.34
x1 = 0.1388	2.25
x1 = 0.1724	2.11
x1 = 0.1977	2
x1 = 0.2256	1.87
x1 = 0.2662	1.68
x1 = 0.3346	1.4
x1 = 0.3989	1.18
x1 = 0.481	1.02
x1 = 0.5543	0.861
x1 = 0.6316	0.719
x1 = 0.714	0.599
x1 = 0.7932	0.504
x1 = 0.8534	0.444
x1 = 0.9551	0.362
x1 = 1	0.332

CC[n+]1ccc(C)cc1.O=S(=O)([N-]S(=O)(=O)C(F)(F)F)C(F)(F)F + CCO
[1]
Conditions	electrical conductivity [S/m]
x1 = 0.0118	0.292
x1 = 0.0152	0.36
x1 = 0.021	0.468
x1 = 0.0327	0.669
x1 = 0.0593	1.04
x1 = 0.07	1.16
x1 = 0.0857	1.31
x1 = 0.1196	1.56
x1 = 0.1573	1.73
x1 = 0.2361	1.87
x1 = 0.3013	1.86
x1 = 0.3773	1.77
x1 = 0.4527	1.65
x1 = 0.53	1.51
x1 = 0.608	1.37
x1 = 0.6908	1.22
x1 = 0.7803	1.07
x1 = 0.8913	0.903
x1 = 1	0.769

CCCC[n+]1ccccc1.O=S(=O)([N-]S(=O)(=O)C(F)(F)F)C(F)(F)F [1-butylpyridinium bis[(trifluoromethyl)sulfonyl]imide]
electrical conductivity, [2]
Conditions	283.15 K	293.15 K	298.15 K	303.15 K	313.15 K
101 kPa	0.151 S/m	–	0.308 S/m	0.377 S/m	0.542 S/m and 0.54 S/m
101.33 kPa	0.15 S/m and 0.151 S/m	0.246 S/m	0.307 S/m and 0.308 S/m	0.378 S/m and 0.377 S/m	0.541 S/m and 0.542 S/m and 0.54 S/m

CC[n+]1ccc(C)cc1.O=S(=O)([N-]S(=O)(=O)C(F)(F)F)C(F)(F)F
Conditions	electrical conductivity
[2], 298.15 K, 101 kPa	0.771 S/m and 0.769 S/m

CCCCC[n+]1ccccc1.O=S(=O)([N-]S(=O)(=O)C(F)(F)F)C(F)(F)F [1-pentylpyridinium bis(trifluoromethylsulfonyl)amide]
Conditions	electrical conductivity [S/m]
[2], 298.15 K, 101 kPa	0.216

CCCC[n+]1ccc(C)cc1.O=S(=O)([N-]S(=O)(=O)C(F)(F)F)C(F)(F)F
Conditions	electrical conductivity
[2], 298.15 K, 101 kPa	0.332 S/m and 0.333 S/m

CCCCC[n+]1ccccc1.O=S(=O)([N-]S(=O)(=O)C(F)(F)F)C(F)(F)F [1-pentylpyridinium bis(trifluoromethylsulfonyl)amide] + CCO
[1]
Conditions	electrical conductivity [S/m]
x1 = 0.0223	0.403
x1 = 0.0292	0.483
x1 = 0.0374	0.574
x1 = 0.0477	0.669
x1 = 0.0603	0.761
x1 = 0.0725	0.831
x1 = 0.092	0.912
x1 = 0.1279	0.991
x1 = 0.1529	1.01
x1 = 0.1636	1.01
x1 = 0.175	1.01
x1 = 0.2038	0.998
x1 = 0.2608	0.941
x1 = 0.3058	0.882
x1 = 0.3508	0.82
x1 = 0.4166	0.731
x1 = 0.4692	0.662
x1 = 0.5309	0.587
x1 = 0.6063	0.503
x1 = 0.6746	0.437
x1 = 0.7613	0.363
x1 = 0.8138	0.325
x1 = 0.8772	0.283
x1 = 0.9319	0.251
x1 = 1	0.216

CCCC[n+]1ccc(C)cc1.O=S(=O)([N-]S(=O)(=O)C(F)(F)F)C(F)(F)F + CCO
[1]
Conditions	electrical conductivity [S/m]
x1 = 0.011	0.243
x1 = 0.0125	0.269
x1 = 0.015	0.311
x1 = 0.0186	0.369
x1 = 0.0258	0.474
x1 = 0.0376	0.623
x1 = 0.0436	0.689
x1 = 0.0602	0.844
x1 = 0.0676	0.901
x1 = 0.0852	1.01
x1 = 0.1143	1.13
x1 = 0.1262	1.16
x1 = 0.1387	1.19
x1 = 0.1537	1.21
x1 = 0.1811	1.23
x1 = 0.2232	1.22
x1 = 0.2748	1.17
x1 = 0.3347	1.1
x1 = 0.3809	1.03
x1 = 0.4405	0.939
x1 = 0.5405	0.793
x1 = 0.642	0.663
x1 = 0.7148	0.579
x1 = 0.8106	0.482
x1 = 0.9328	0.379
x1 = 1	0.333

CC[n+]1ccccc1.O=S(=O)([N-]S(=O)(=O)C(F)(F)F)C(F)(F)F [1-ethylpyridinium bis[(trifluoromethyl)sulfonyl]imide]
Conditions	electrical conductivity
[2], 298.15 K, 101 kPa	0.63 S/m and 0.629 S/m

CCCC[n+]1ccccc1.O=S(=O)([N-]S(=O)(=O)C(F)(F)F)C(F)(F)F [1-butylpyridinium bis[(trifluoromethyl)sulfonyl]imide] + CCO
[1]
Conditions	electrical conductivity [S/m]
x1 = 0.02	0.389
x1 = 0.0313	0.543
x1 = 0.0415	0.66
x1 = 0.0601	0.83
x1 = 0.0722	0.915
x1 = 0.103	1.06
x1 = 0.1448	1.16
x1 = 0.1659	1.18
x1 = 0.184	1.19
x1 = 0.196	1.19
x1 = 0.2208	1.18
x1 = 0.2693	1.14
x1 = 0.3122	1.09
x1 = 0.362	1.02
x1 = 0.424	0.926
x1 = 0.4616	0.872
x1 = 0.5169	0.793
x1 = 0.5597	0.735
x1 = 0.6073	0.674
x1 = 0.6706	0.598
x1 = 0.7463	0.516
x1 = 0.8415	0.426
x1 = 0.8925	0.383
x1 = 1	0.307
